Results from patent US6468782B1, “Methods of preserving prokaryotic cells and compositions obtained thereby” (priority 1996, dated 2002).
Read-outs that look alike come from different tables or passages of the source.

Tests used:
E. coli 9484 = test: Viable cell recovery (plate assay, CFU) of trehalose-induced E. coli Q-T4 dried with different excipients and stored at 37° C.; format: cell-based
Procedure: Viability was determined immediately after completion and at various times during storage at 37° C. using a plate assay. For the plate assay, serial 10-fold dilutions of cells were set up by using minimal medium minus a carbon source as a sterile diluent.
Thirty μl of the cell suspension from the sixth dilution tube was added to each of 3 LB (Luria-Bertuni) plates, using a sterile glass spreader to spread the culture over the entire surface of the plate. The plates were incubated overnight at 37° C., and the colonies counted.
E. coli strain 9894 was inoculated in 100 ml batch cultures of minimal medium related to M9 but with high (0.5M) salt content as described in Example 2. Cells were grown for 22 hours at 37° C. in a shaking incubator (early stationary phase). Samples of cultures were removed for trehalose determination (3×1 ml) and protein estimation by the Bradford assay (3×10 ml; Bio-Rad). Trehalose concentration was expressed as μmol (mg protein)^−1.
Two 30 ml aliquots from each flask were harvested by centrifugation at 10,000 rpm for 10 minutes. Cell pellets were resuspended in 8 ml of 25-45% sugar, 0.1% CMC (sodium carboxymethyl cellulose; Blanose 7HF; Aqualon). The suspensions were then pooled to a total volume of 16 ml with a typical cell density of 4-8×10^9 CFU/ml and 300 μl aliquots dispensed into 3 ml pharmaceutical vials.
Bacteria were dried under vacuum without freezing using the following protocol: vacuum, 30 mT; initial shelf temperature 40° C. for 16 hours, followed by ramping to 80° C. at a rate of 2.5° C./min in increments of 2° C. with a holding time of 12 minutes per increment. Foaming occurred between 60-120 minutes of initial drying.
Viability was determined immediately before and after the completion of the drying procedure and at various times during storage at 37° C. using a plate assay as described in Example 2. The residual moisture content and the glass transition temperature were also determined.

E. coli = test: Intracellular trehalose production in E. coli under osmotic shock with different salts; format: cell-based
Procedure: E. coli NCIMB strain 9484 was cultured in Evans medium (pH 7.0; Table 1) containing one of a variety of agents for increasing osmotic pressure. After overnight incubation at 37° C. in initial Evans medium, a 4 ml culture of E. coli grown in Evans medium under nitrogen limitation was used to inoculate a 200 ml culture of Evans medium osmotic shock.
Intracellular trehalose concentration was measured as described below at various times after the initiation of osmotic shock.
Intracellular concentration of trehalose was determined using high pressure liquid chromatography (HPLC) as follows. Trehalose standards were prepared by first making 10 mM trehalose in 70% ethanol, followed by 10-fold serial dilution from 10 mM to 10 nM using 70% ethanol as diluent. […]
Cell samples were prepared for analysis by disrupting the cell wall by sonication (any other method such as mortar and pestle, osmotic lysis, beads can be used) coupled with the preferential solubilization of trehalose in 70% ethanol, followed by removing triglycerides by chloroform extraction. […] The pellet volume was determined by measuring the relative increase in the initial volume following resuspension of the cells. […]
Quantitation of trehalose was achieved by HPLC (Beckman Instruments), using a Dionex CarboPac PA 100 analytical column, with a Dionex ED40 pulsed amperometric electrochemical detector. […]

OC[C@@H](O)[C@@H](O[C@@H]1O[C@H](CO)[C@H](O)[C@H](O)[C@H]1O)[C@H](O)[C@@H](O)CO [Lactitol, 4-O-β-D-galactopyranosyl-D-glucitol]
% Viable Cell Recovery after storage at 37° C., Day 0 (E. coli 9484; E. coli, 0 day): 42%
% Viable Cell Recovery after storage at 37° C., Week 3 (E. coli 9484; E. coli, 3 weeks): 36%
% Viable Cell Recovery after storage at 37° C., Week 6 (E. coli 9484; E. coli, 6 weeks): 34%

N.N.O=S(=O)(O)O [ammonium sulfate]
amount of intracellular trehalose concentration stimulated, relative to NaCl, CaCl2 or KCl (E. coli): about half

OC[C@H]1O[C@H](O[C@H]2O[C@H](CO)[C@@H](O)[C@H](O)[C@H]2O)[C@H](O)[C@@H](O)[C@@H]1O [Trehalose, α-D-glucopyranosyl-α-D-glucopyranoside]
% Viable Cell Recovery after storage at 37° C., Week 3 (E. coli 9484; 3 weeks storage at 37° C., 25-45% sugar, 0.1% CMC): 52%
% Viable Cell Recovery after storage at 37° C., Week 6 (E. coli 9484; 6 weeks storage at 37° C., 25-45% sugar, 0.1% CMC): 45%
% Viable Cell Recovery after storage at 37° C., Day 0 (E. coli 9484; immediately after completion of Q-T4 drying, 25-45% sugar, 0.1% CMC): 36%

Palatinit
% Viable Cell Recovery after storage at 37° C., Day 0 (E. coli 9484): 49%
% Viable Cell Recovery after storage at 37° C., Week 3 (E. coli 9484): 49%
% Viable Cell Recovery after storage at 37° C., Week 6 (E. coli 9484): 51%
